Each structure is given as a SMILES string. Where two headings read alike, the source gives them in different places. Where only a bound is given, the exact number is not on record here.

By IC50 is commonly meant the point on the concentration scale where inhibition reaches its midpoint.

The assay relates to colorectal cancer cell lines (e.g. DLD-1, HCT 116, SW620, HCT-15, HCT-8, RKO). Briefly: Cell based assay, cell viability (CellTiter-Glo), colorectal cancer cell lines. How it is done: Commercially available bladder cancer, prostate cancer, lung cancer, breast cancer, blood cancer, pancreatic cancer, colorectal cancer, brain cancer, neuroblastoma, melanoma, liver cancer, cervical carcinoma, ovarian cancer, renal cancer, and papilloma cell lines were each treated with trypsin-EDTA and cultured, followed by being seeded in each well of a 96 well plate. After 24 hours of treatment at constant temperature, the respective cells were treated with the candidate compound so that a final concentration became 0 to 2 μM. The treated cells were additionally cultured for 72 hours, and cell viability was measured by using an ATP detection method (CellTiter-Glo® Luminescent Cell Viability Assay, Promega).
(In general: In ATP-based viability assays light output follows the ATP content of the culture.)

Setting [1] is: Homo sapiens, DLD-1, 72 hours treatment, read-out: IC50, colorectal cancer cell line DLD-1.
Setting [2] is: Homo sapiens, HCT 116, 72 hours treatment, read-out: IC50, colorectal cancer cell line HCT 116.
The mark [3] stands for this setting: Homo sapiens, HCT-8, 72 hours treatment, read-out: IC50, colorectal cancer cell line HCT-8.
[4] abbreviates: Homo sapiens, HCT-15, 72 hours treatment, read-out: IC50, colorectal cancer cell line HCT-15.
[5] abbreviates: Homo sapiens, HT-29, 72 hours treatment, read-out: IC50, colorectal cancer cell line HT-29.
The mark [6] stands for this setting: Homo sapiens, LoVo, 72 hours treatment, read-out: IC50, colorectal cancer cell line LoVo.
The mark [7] stands for this setting: Homo sapiens, SW480, 72 hours treatment, read-out: IC50, colorectal cancer cell line SW480.
Setting [8] is: Homo sapiens, SW-620, SW620, 72 hours treatment, read-out: IC50, colorectal cancer cell line SW620.
The mark [9] stands for this setting: RKO, 72 hours treatment, read-out: IC50, colorectal cancer cell line RKO.

As to `CSc1c(C(C)=O)c(=O)c2c(Cl)ccc(Br)c2n1S(=O)(=O)c1ccc(C(C)(C)C)cc1` [Compound 40, 3-acetyl-8-bromo-1-((4-(tert-butyl)phenyl)sulfonyl)-5-chloro-2-(methylthio)quinolin-4(1H)-one], the IC50 is, setting by setting: under setting [1], over 2 µM; under setting [2], over 2 µM; under setting [3], over 2 µM; under setting [4], over 2 µM; under setting [5], over 10 µM; under setting [6], over 2 µM. In addition, the IC50 under setting [7] is over 2 µM, the IC50 under setting [8] was over 2 µM and the IC50 under setting [9] is over 2 µM.
`CC(=O)c1c(S(C)(=O)=O)n(S(=O)(=O)c2ccc(C(C)(C)C)cc2)c2c(Br)ccc(Cl)c2c1=O` [Compound 41, 3-acetyl-8-bromo-1-((4-(tert-butyl)phenyl)sulfonyl)-5-chloro-2-(methylsulfonyl)quinolin-4(1H)-one]: the concentration for half-maximal inhibition (IC50) runs as follows: under setting [1], over 2 µM; under setting [2], over 2 µM; under setting [3], over 2 µM; under setting [4], over 2 µM; under setting [5], over 10 µM; under setting [6], over 2 µM. Also, the half-inhibitory concentration (IC50) reads like this: under setting [7], over 2 µM; under setting [8], over 2 µM; under setting [9], over 2 µM.
On to `CC(=O)c1c([S+](C)[O-])n(S(=O)(=O)c2ccc(C(C)(C)C)cc2)c2c(Br)ccc(Cl)c2c1=O` (stereo not drawn) [Compound 42, 3-acetyl-8-bromo-1-((4-(tert-butyl)phenyl)sulfonyl)-5-chloro-2-(methylsulfinyl)quinolin-4(1H)-one], for which the IC50 under setting [1] was found to be 1.96 µM; the IC50 under setting [2] was over 2 µM; the IC50 under setting [3] is over 2 µM; the IC50 under setting [4] was over 2 µM; the IC50 under setting [5] is over 10 µM; the IC50 under setting [6] was over 2 µM. Besides, the concentration for half-maximal inhibition (IC50) reads like this: under setting [7], over 2 µM; under setting [8], over 2 µM; under setting [9], over 2 µM.
In the case of `CC(=O)c1c(SCc2cc(Cl)ccc2Cl)[nH]c2c(Br)ccc(Cl)c2c1=O` [Compound 43, 3-acetyl-8-bromo-5-chloro-2-((2,5-dichlorobenzyl)thio)quinolin-4(1H)-one], the half-inhibitory concentration (IC50) reads like this: under setting [1], over 2 µM; under setting [2], over 2 µM; under setting [3], over 2 µM; under setting [4], over 2 µM; under setting [5], over 10 µM; under setting [6], over 2 µM. Moreover, the half-maximal inhibitory concentration (IC50) is, setting by setting: under setting [7], over 2 µM; under setting [8], over 2 µM; under setting [9], over 2 µM.
On to `CC(=O)c1c(SCc2cc(F)cc(F)c2)[nH]c2c(Br)ccc(Cl)c2c1=O` [Compound 45, 3-acetyl-8-bromo-5-chloro-2-((3,5-difluorobenzyl)thio)quinolin-4(1H)-one], for which the IC50 under setting [1] was over 2 µM; the concentration for half-maximal inhibition (IC50) under setting [2] was over 2 µM; the IC50 under setting [3] is over 2 µM; the IC50 under setting [4] was over 2 µM; the IC50 under setting [5] was over 10 µM; the IC50 under setting [6] was over 2 µM. Also, the IC50 was over 2 µM under setting [7], over 2 µM under setting [8] and over 2 µM under setting [9].
Consider `CC(=O)c1c(SCc2cccc(I)c2)[nH]c2c(Br)ccc(Cl)c2c1=O` [Compound 47, 3-acetyl-8-bromo-5-chloro-2-((3-iodobenzyl)thio)quinolin-4(1H)-one], for which the IC50 was over 2 µM under setting [1]; over 2 µM under setting [2]; over 2 µM under setting [3]; over 2 µM under setting [4]; over 10 µM under setting [5]; over 2 µM under setting [6]. In addition, the IC50 is over 2 µM under setting [7], over 2 µM under setting [8] and over 2 µM under setting [9].
As to `CC(=O)c1c([S+]([O-])Cc2cccc(I)c2)[nH]c2c(Br)ccc(Cl)c2c1=O` (stereo not drawn) [Compound 48, 3-acetyl-8-bromo-5-chloro-2-((3-iodobenzyl)sulfinyl)quinolin-4(1H)-one], the IC50 was 1.6 µM under setting [1]; over 2 µM under setting [2]; over 2 µM under setting [3]; over 2 µM under setting [4]; over 10 µM under setting [5]; over 2 µM under setting [6]. Moreover, the IC50 under setting [7] was over 2 µM, the IC50 under setting [8] is over 2 µM and the IC50 under setting [9] is over 2 µM.
`CC(=O)c1c(SCc2cccc(F)c2)[nH]c2c(Br)ccc(Cl)c2c1=O` [Compound 49, 3-acetyl-8-bromo-5-chloro-2-((3-fluorobenzyl)thio)quinolin-4(1H)-one]: the IC50 under setting [1] is over 2 µM; the concentration for half-maximal inhibition (IC50) under setting [2] was over 2 µM; the IC50 under setting [3] is over 2 µM; the IC50 under setting [4] is over 2 µM; the IC50 under setting [5] was over 10 µM; the 50% inhibitory concentration (IC50) under setting [6] was over 2 µM. Besides, the IC50 was over 2 µM under setting [7], over 2 µM under setting [8] and over 2 µM under setting [9].
Consider `CC(=O)c1c(SCc2ccccc2)nc2c(Br)ccc(Cl)c2c1O` [Compound 52, 1-(2-(benzylthio)-8-bromo-5-chloro-4-hydroxyquinolin-3-yl)ethan-1-one], for which the IC50 by setting is: under setting [1], over 2 µM; under setting [2], over 2 µM; under setting [3], over 2 µM; under setting [4], over 2 µM; under setting [5], over 10 µM; under setting [6], over 2 µM. The IC50 was over 2 µM under setting [7], over 2 µM under setting [8] and over 2 µM under setting [9].
For `CC(=O)c1c([S+]([O-])Cc2ccccc2)nc2c(Br)ccc(Cl)c2c1O` (stereo not drawn) [Compound 53, 1-(2-(benzylsulfinyl)-8-bromo-5-chloro-4-hydroxyquinolin-3-yl)ethan-1-one], the IC50 is, setting by setting: under setting [1], over 2 µM; under setting [2], over 2 µM; under setting [3], over 2 µM; under setting [4], over 2 µM; under setting [5], over 10 µM; under setting [6], over 2 µM. Moreover, the half-inhibitory concentration (IC50) under setting [7] is over 2 µM, the IC50 under setting [8] was over 2 µM and the IC50 under setting [9] was over 2 µM.
`CC(=O)c1c(S(=O)(=O)Cc2ccccc2)nc2c(Br)ccc(Cl)c2c1O` [Compound 54, 1-(2-(benzylsulfonyl)-8-bromo-5-chloro-4-hydroxyquinolin-3-yl)ethan-1-one]: the IC50 is, setting by setting: under setting [1], over 2 µM; under setting [2], over 2 µM; under setting [3], over 2 µM; under setting [4], over 2 µM; under setting [5], over 10 µM; under setting [6], over 2 µM. In addition, the IC50 runs as follows: under setting [7], over 2 µM; under setting [8], over 2 µM; under setting [9], over 2 µM.
Take `CC(=O)c1c([S+]([O-])Cc2ccccc2C#N)[nH]c2c(Br)ccc(Cl)c2c1=O` (stereo not drawn) [Compound 58, 2-(((3-acetyl-8-bromo-5-chloro-4-oxo-1,4-dihydroquinolin-2-yl)sulfinyl)methyl)benzonitrile]: the half-inhibitory concentration (IC50) under setting [1] was found to be 0.77 µM; the IC50 under setting [2] was determined as 1.09 µM; the IC50 under setting [3] came out at 1.35 µM; the 50% inhibitory concentration (IC50) under setting [4] is 1.1 µM; the IC50 under setting [5] is over 10 µM; the IC50 under setting [6] stood at 2.02 µM. Further, the 50% inhibitory concentration (IC50) by setting is: under setting [7], 1.22 µM; under setting [8], 1.16 µM; under setting [9], 1.12 µM.
`COCSc1[nH]c2c(Br)ccc(Cl)c2c(=O)c1C(C)=O` [Compound 61, 3-acetyl-8-bromo-5-chloro-2-((methoxymethyl)thio)quinolin-4(1H)-one]: the IC50 under setting [1] is over 2 µM; the IC50 under setting [2] was over 2 µM; the IC50 under setting [3] was over 2 µM; the IC50 under setting [4] is over 2 µM; the IC50 under setting [5] is over 10 µM; the IC50 under setting [6] is over 2 µM. Moreover, the half-inhibitory concentration (IC50) runs as follows: under setting [7], over 2 µM; under setting [8], over 2 µM; under setting [9], over 2 µM.
As to `CC(=O)c1c(S)[nH]c2c(Br)ccc(Cl)c2c1=O` [Compound 62, 3-acetyl-8-bromo-5-chloro-2-mercaptoquinolin-4(1H)-one], the IC50 is over 2 µM under setting [1]; over 2 µM under setting [2]; over 2 µM under setting [3]; over 2 µM under setting [4]; over 10 µM under setting [5]; over 2 µM under setting [6]. Besides, the IC50 was over 2 µM under setting [7], over 2 µM under setting [8] and over 2 µM under setting [9].
Consider `CC(=O)c1c([S+]([O-])Cc2ccc(C(=O)c3ccccc3)cc2)[nH]c2c(Br)ccc(Cl)c2c1=O` (stereo not drawn) [Compound 63, 3-acetyl-2-((4-benzoylbenzyl)sulfinyl)-8-bromo-5-chloroquinolin-4(1H)-one], for which the IC50 is over 2 µM under setting [1]; over 2 µM under setting [2]; over 2 µM under setting [3]; over 2 µM under setting [4]; over 10 µM under setting [5]; over 2 µM under setting [6]. The IC50 under setting [7] was over 2 µM, the IC50 under setting [8] was over 2 µM and the half-inhibitory concentration (IC50) under setting [9] was over 2 µM.
For `CC(=O)c1c([S+]([O-])CC#N)[nH]c2c(Br)ccc(Cl)c2c1=O` (stereo not drawn) [Compound 65, 2-((3-acetyl-8-bromo-5-chloro-4-oxo-1,4-dihydroquinolin-2-yl)sulfinyl)acetonitrile], the IC50 under setting [1] was over 2 µM; the IC50 under setting [2] is over 2 µM; the IC50 under setting [3] is over 2 µM; the concentration for half-maximal inhibition (IC50) under setting [4] is over 2 µM; the IC50 under setting [5] is over 10 µM; the IC50 under setting [6] is over 2 µM. In addition, the IC50 under setting [7] was over 2 µM, the IC50 under setting [8] was over 2 µM and the IC50 under setting [9] is over 2 µM.
As to `CC(=O)c1c(SCC#N)[nH]c2c(Br)ccc(Cl)c2c1=O` [Compound 66, 2-((3-acetyl-8-bromo-5-chloro-4-oxo-1,4-dihydroquinolin-2-yl)thio)acetonitrile], the IC50 was over 2 µM under setting [1]; over 2 µM under setting [2]; over 2 µM under setting [3]; over 2 µM under setting [4]; over 10 µM under setting [5]; over 2 µM under setting [6]. Moreover, the IC50 is over 2 µM under setting [7], over 2 µM under setting [8] and over 2 µM under setting [9].
Turning to `CC(=O)c1c(S/C=C\C(=O)O)[nH]c2c(Br)ccc(Cl)c2c1=O` [Compound 67, (Z)-3-((3-acetyl-8-bromo-5-chloro-4-oxo-1,4-dihydroquinolin-2-yl)thio)acrylic acid], the half-maximal inhibitory concentration (IC50) was over 2 µM under setting [1]; over 2 µM under setting [2]; over 2 µM under setting [3]; over 2 µM under setting [4]; over 10 µM under setting [5]; over 2 µM under setting [6]. Moreover, the IC50 was over 2 µM under setting [7], over 2 µM under setting [8] and over 2 µM under setting [9].
Regarding `CC(=O)c1c([S+]([O-])Cc2ccc(S(F)(F)(F)(F)F)cc2)[nH]c2c(Br)ccc(Cl)c2c1=O` (stereo not drawn) [Compound 68, 3-acetyl-8-bromo-5-chloro-2-((4-(pentafluoro-16-sulfanyl)benzyl)sulfinyl)quinolin-4(1H)-one], the IC50 is, setting by setting: under setting [1], 0.78 µM; under setting [2], 1.09 µM; under setting [3], 1.3 µM; under setting [4], 0.98 µM; under setting [5], over 2 µM; under setting [6], over 2 µM. Moreover, the concentration for half-maximal inhibition (IC50) is, setting by setting: under setting [7], 1.75 µM; under setting [8], 1.66 µM; under setting [9], 1.33 µM.

Source of the values: patent US11464770B2, “Anticancer pharmaceutical composition” (NATIONAL CANCER CENTER, priority 2016, dated 2022).
